In patent US20100286035A1, “NEUROMEDIN U DERIVATIVE” (Takeda Pharmaceutical Company Limited, priority 2007, published 2010):
Where no end group is shown, it is not given here.

Assays:
Assay type in all cases: in vivo
[1] = system: male C57BL/6J mice; assay: Test Example 8: antifeedant activity of NMU-8 PEG conjugate in mice; conditions: 100 nmol/kg intraperitoneally, mice fasted for 16 hours (FIG. 9)
Description: (§1) 7 weeks old male C57BL/6J mice delivered from the Japan Charles River Company were raised for 5 to 10 days after delivery under a feeding environment regulated for temperature and humidity with lighting time (25° C., 12 hours of lighted period and 12 hours of dark period, light was lit at 8:00). Four animals were placed in one cage. After handling the mice for 5 to 8 days, the animals were housed singly in each cage where a floor mesh was spread and acclimated by intraperitoneal injection for 3 days prior to the administration of a peptide (conjugate). The animals acclimated were fasted for 16 hours from 18:00 prior to the administration of the peptide (conjugate). However, the animals has free access to drinking water). Subsequently, a peptide (conjugate) dissolved in physiological saline solution was intraperitoneally injected to the mice, namely 24.3 μM PEG30k (ACP)-NMU-8 [14], 24.3 μM (PEG20k)2 (ACP)-NMU-8 [29], 24.3 μM PEG30k (AB)-NMU-8 [11], 24.3 μM (PEG20k)2 (AB)-NMU-8 [26], 24.3 μM PEG30k (NH-AB)-NMU-8 [42], 24.3 μM PEG30k (SMCC)-NMU-8 [4] were administered intraperitoneally at 10:00 on the day of administration to the mice such that the dosage of each solution (100 μl) was 100 nmol/kg. After the injection of the peptide (conjugate) solution, MF feed which had been weighed (Oriental Yeast Industry) was given freely to the mice. Further, the residual amount of the feed was measured after 3, 6 and 24 hours. The food intakes at 3, 6 and 24 hours were calculated by subtracting the residual amount of the feed after 3, 6 and 24 hours from the amount of the feed that was originally given.

[2] = system: male C57BL/6J mice; assay: Test Example 7: antifeedant activity of NMU-8 PEG conjugate in mice; conditions: 10 nmol/kg intraperitoneally, mice fasted for 16 hours (FIG. 8)
Description: 7 weeks old male C57BL/6J mice delivered from the Japan Charles River Company were raised for 5 to 10 days after delivery under a feeding environment regulated for temperature and humidity with lighting time (25° C., 12 hours of lighted period and 12 hours of dark period, light was lit at 8:00). Four animals were placed in one cage. After handling the mice for 5 to 8 days, the animals were housed singly in each cage where a floor mesh was spread and acclimated by intraperitoneal injection using a syringe (micro injector, syringe for insulin administration, Terumo) for 3 days prior to the administration of a peptide (conjugate). The animals acclimated were fasted for 16 hours from 18:00 prior to the administration of the peptide (conjugate). However, the animals were free access to drinking water). Subsequently, a peptide dissolved in physiological saline solution (conjugate) namely 2.51 μM PEG30k-NMU-8 [5], 2.51 μM PEG30k-Cys-NMU-8 [6], 2.51 μM PEG30k-(Traut)-NMU-8 [7], 2.51 μM PEG30k (SMCC)-NMU-8 [4] were administered intraperitoneally at 10:00 on the day of administration to the mice such that the dosage of each solution (100 μl) was 10 nmol/kg. After the injection of the peptide (conjugate) solution, MF feed which had been weighed (Oriental Yeast Industry) was given freely to the mice. Further, the residual amount of the feed was measured after 3, 6 and 24 hours. The food intakes at 3, 6 and 24 hours were calculated by subtracting the residual amount of the feed after 3, 6 and 24 hours from the amount of the feed that was originally given.

[3] = system: male C57BL/6J mice; assay: Test Example 6: antifeedant activity of NMU-8 PEG conjugate in mice; conditions: 100 nmol/kg intraperitoneally, mice fasted for 16 hours (FIG. 7)
Description: as §1, with “had” for “has”, “Subsequently, a peptide (conjugate) dissolved in physiological saline solution was intraperitoneally injected to the mice, namely 24.3 μM PEG30k (ACP)-NMU-8 [14], 24.3 μM (PEG20k)2 (ACP)-NMU-8 [29], 24.3 μM PEG30k (AB)-NMU-8 [11], 24.3 μM (PEG20k)2 (AB)-NMU-8 [26], 24.3 μM PEG30k (NH-AB)-NMU-8 [42], 24.3 μM PEG30k (SMCC)-NMU-8 [4] were administered intraperitoneally at 10:00 on the day of administration to the mice such that the dosage of each solution (100 μl) was 100 nmol/kg.” left out

[4] = system: male C57BL/6J mice; assay: Test Example 4: antifeedant activity of NMU-8 PEG conjugate in mice; conditions: 100 nmol/kg intraperitoneally, mice fasted for 16 hours (FIG. 5)
Description: 7 weeks old male C57BL/6J mice delivered from the Japan Charles River Company were raised for 5 to 10 days after delivery under a feeding environment regulated for temperature and humidity with lighting time (25° C., 12 hours of lighted period and 12 hours of dark period, light was lit at 8:00). Four animals were placed in one cage. After handling the mice for 5 to 8 days, the animals were housed singly in each cage where a floor mesh was spread and acclimated by intraperitoneal injection for 3 days prior to the administration of a peptide (conjugate). The animals acclimated were fasted for 16 hours from 18:00 prior to the administration of the peptide (conjugate). However, the animals had free access to drinking water). Subsequently, a peptide dissolved in physiological saline solution (conjugate) was intraperitoneally injected into the mice, namely 24.2 μM PEG30k (GMBS)-NMU-8 [1], 24.2 μM PEG30k (EMCS)-NMU-8 [2], 24.2 μM PEG30k (KMUS)-NMU-8 [3], 24.2 μM PEG30k (SMCC)-NMU-8 [4] were administered intraperitoneally at 10:00 on the day of administration to the mice such that the dosage of each solution (100 μl) was 100 nmol/kg. After the injection of the peptide (conjugate) solution, MF feed which had been weighed (Oriental Yeast Industry) was given freely to the mice. Further, the residual amount of the feed was measured after 3, 6 and 24 hours. The food intakes at 3, 6 and 24 hours were calculated by subtracting the residual amount of the feed after 3, 6 and 24 hours from the amount of the feed that was originally given.

[5] = system: male C57BL/6J mice; assay: Test Example 5: antifeedant activity of NMU-8 PEG conjugate in mice; conditions: 10 nmol/kg intraperitoneally, mice fasted for 16 hours (FIG. 6)
Description: 7 weeks old male C57BL/6J mice delivered from the Japan Charles River Company were raised for 5 to 10 days after delivery under a feeding environment regulated for temperature and humidity with lighting time (25° C., 12 hours of lighted period and 12 hours of dark period, light was lit at 8:00). Four animals were placed in one cage. After handling the mice for 5 to 8 days, the animals were housed singly in each cage where a floor mesh was spread and acclimated by intraperitoneal injection using a syringe (micro injector, syringe for insulin administration, Terumo) for 3 days prior to the administration of a peptide (conjugate). The animals acclimated were fasted for 16 hours from 18:00 prior to the administration of the peptide (conjugate). However, the animals had free access to drinking water). Subsequently, a peptide dissolved in physiological saline solution (conjugate) namely 2.39 μM PEG30k (GMBS)-NMU-8 [1], 2.39 μM PEG30k (EMCS)-NMU-8 [2], 2.39 μM PEG30k (KMUS)-NMU-8 [3], 2.39 μM PEG30k (SMCC)-NMU-8 [4] were administered intraperitoneally at 10:00 on the day of administration to the mice such that the dosage of each solution (100 μl) was 10 nmol/kg. After the injection of the peptide (conjugate) solution, MF feed which had been weighed (Oriental Yeast Industry) was given freely to the mice. Further, the residual amount of the feed was measured after 3, 6 and 24 hours. The food intakes at 3, 6 and 24 hours were calculated by subtracting the residual amount of the feed after 3, 6 and 24 hours from the amount of the feed that was originally given.

[6] = system: male C57BL/6J mice; assay: Test Example 1: antifeedant activity of NMU-23 and NMS in mice; conditions: 3 mg/kg intraperitoneally, mice fasted for 16 hours
Description: 7 weeks old male C57BL/6J mice (mean bodyweight: 24 g) delivered from the Japan Charles River Company were raised for 5 to 7 days after the delivery under a feeding environment regulated for temperature and humidity with lighting time (25° C., 12 hours of lighted period and 12 hours of dark period, light was lit at 8:00). Four animals were placed in one cage. After handling the mice for 5 to 8 days, the animals were housed singly in each cage where a floor mesh was spread and acclimated by intraperitoneal injection for 3 days prior to the administration of a peptide. The animals acclimated were fasted for 16 hours from 18:00 prior to the administration of the peptide. However, the animals had free access to drinking water. Subsequently, a peptide, namely 720 μg/ml rat NMU-23 (peptide Institution) [Sequence No. 5], or rat NMS (Bachem) [Sequence No. 9] dissolved in physiological saline solution was intraperitoneally injected to the mice such that the dosage of each solution (100 μl) was 3 mg/kg at 10:00 on the day of administration. […] Further, the residual amount of the feed was measured after 3, 6 and 24 hours. The food intakes at 3, 6 and 24 hours were calculated by subtracting the residual amount of the feed after 3, 6 and 24 hours from the amount of the feed that was originally given. […]

[7] = system: male C57BL/6J mice; assay: Test Example 2: antifeedant activity of NMU-23 and NMU-8 in mice
Description: 7 weeks old male C57BL/6J mice (mean bodyweight: 25 g) delivered from the Japan Charles River Company were raised for 5 to 10 days after delivery under a feeding environment regulated for temperature and humidity with lighting time (25° C., 12 hours of lighted period and 12 hours of dark period, light was lit at 8:00). Four animals were placed in one cage. After handling the mice for 5 to 8 days, the animals were housed singly in each cage where a floor mesh was spread and acclimated by intraperitoneal injection for 3 days prior to the administration of a peptide. The animals acclimated were fasted for 16 hours from 18:00 prior to the administration of the peptide. However, the animals had free access to drinking water. […] After the injection of the peptide solution, MF feed which had been weighed (Oriental Yeast Industry) was given freely to the mice. Further, the residual amount of the feed was measured after 3, 6 and 24 hours. The food intakes at 3, 6 and 24 hours were calculated by subtracting the residual amount of the feed after 3, 6 and 24 hours from the amount of the feed that was originally given.
[In FIG. 2, * and ** tested by T-tests indicated to be lower at the levels of significance of 0.05 and 0.01 (P<0.05 and P<0.01]

Substance: PEG30k(ACP)-NMU-8
- intakes of the feed at 3, 6 and 24 hours [1]: significantly suppressed

Substance: PEG30k-NMU-8
- intakes of the feed at 3, 6 and 24 hours [2]: significantly suppressed
- intakes of the feed at 3, 6 and 24 hours [3]: significantly suppressed

Substance: (PEG20k)2(ACP)-NMU-8
- intakes of the feed at 3, 6 and 24 hours [1]: significantly suppressed

Substance: PEG30k(KMUS)-NMU-8
- intakes of the feed at 3, 6 and 24 hours [4]: significantly suppressed
- intakes of the feed at 3, 6 and 24 hours [5]: significantly suppressed

Substance: (PEG20k)2(AB)-NMU-8
- intakes of the feed at 3, 6 and 24 hours [1]: significantly suppressed

Substance: PEG30k(AB)-NMU-8
- intakes of the feed at 3, 6 and 24 hours [1]: significantly suppressed

Substance: PEG30k(SMCC)-NMU-8
- intakes of the feed at 3, 6 and 24 hours [1]: significantly suppressed
- intakes of the feed at 3, 6 and 24 hours [4]: significantly suppressed
- intakes of the feed at 3, 6 and 24 hours [5]: significantly suppressed
- intakes of the feed at 3, 6 and 24 hours [2]: significantly suppressed
- intakes of the feed at 3, 6 and 24 hours [3]: significantly suppressed

Substance: PEG30k(GMBS)-NMU-8
- intakes of the feed at 3, 6 and 24 hours [4]: significantly suppressed
- intakes of the feed at 3, 6 and 24 hours [5]: significantly suppressed

Substance: PEG30k(Traut)-NMU-8
- intakes of the feed at 3, 6 and 24 hours [2]: significantly suppressed
- intakes of the feed at 3, 6 and 24 hours [3]: significantly suppressed

Substance: PEG30k(EMCS)-NMU-8
- intakes of the feed at 3, 6 and 24 hours [4]: significantly suppressed
- intakes of the feed at 3, 6 and 24 hours [5]: significantly suppressed

Substance: PEG30k-Cys-NMU-8 (C(PEG 30 kDa)FFLFRPRN-NH2)
- intakes of the feed at 3, 6 and 24 hours [2]: significantly suppressed
- intakes of the feed at 3, 6 and 24 hours [3]: significantly suppressed

Substance: Tyr-Lys-Val-Asn-Glu-Tyr-Gln-Gly-Pro-Val-Ala-Pro-Ser-Gly-Gly-Phe-Phe-Leu-Phe-Arg-Pro-Arg-Asn-NH2 (YKVNEYQGPVAPSGGFFLFRPRN-NH2; listed as Rattus norvegicus) [rat NMU-23]
- intakes of the feed at 3, 6 and 24 hours [6]: significantly suppressed
- intakes of the feed at 3 and 6 hours ([7]; 3 mg/kg intraperitoneally, mice fasted for 16 hours): significantly suppressed
- antifeedant activity via peripheral administration ([7]; peripheral administration): expresses an antifeedant activity

Substance: rat NMS: rat neuromedin S (Bachem) [Sequence No. 9] (LPRLLHTDSRMATIDFPKKDPTTSLGRPFFLFRPRN-NH2; listed as Rattus norvegicus)
- intakes of the feed at 3, 6 and 24 hours [6]: significantly suppressed
